Laboratory results from patent US9765085B2, “SHIP1 modulators and methods related thereto” (Aquinox Pharmaceuticals (Canada) Inc., priority 2013, dated 2017).

Molecular target: T1, His-hSHIP1 enzyme (Homo sapiens, UniProt Q92835)
T1 construct: His
T1 sequence (Q92835 1-1189): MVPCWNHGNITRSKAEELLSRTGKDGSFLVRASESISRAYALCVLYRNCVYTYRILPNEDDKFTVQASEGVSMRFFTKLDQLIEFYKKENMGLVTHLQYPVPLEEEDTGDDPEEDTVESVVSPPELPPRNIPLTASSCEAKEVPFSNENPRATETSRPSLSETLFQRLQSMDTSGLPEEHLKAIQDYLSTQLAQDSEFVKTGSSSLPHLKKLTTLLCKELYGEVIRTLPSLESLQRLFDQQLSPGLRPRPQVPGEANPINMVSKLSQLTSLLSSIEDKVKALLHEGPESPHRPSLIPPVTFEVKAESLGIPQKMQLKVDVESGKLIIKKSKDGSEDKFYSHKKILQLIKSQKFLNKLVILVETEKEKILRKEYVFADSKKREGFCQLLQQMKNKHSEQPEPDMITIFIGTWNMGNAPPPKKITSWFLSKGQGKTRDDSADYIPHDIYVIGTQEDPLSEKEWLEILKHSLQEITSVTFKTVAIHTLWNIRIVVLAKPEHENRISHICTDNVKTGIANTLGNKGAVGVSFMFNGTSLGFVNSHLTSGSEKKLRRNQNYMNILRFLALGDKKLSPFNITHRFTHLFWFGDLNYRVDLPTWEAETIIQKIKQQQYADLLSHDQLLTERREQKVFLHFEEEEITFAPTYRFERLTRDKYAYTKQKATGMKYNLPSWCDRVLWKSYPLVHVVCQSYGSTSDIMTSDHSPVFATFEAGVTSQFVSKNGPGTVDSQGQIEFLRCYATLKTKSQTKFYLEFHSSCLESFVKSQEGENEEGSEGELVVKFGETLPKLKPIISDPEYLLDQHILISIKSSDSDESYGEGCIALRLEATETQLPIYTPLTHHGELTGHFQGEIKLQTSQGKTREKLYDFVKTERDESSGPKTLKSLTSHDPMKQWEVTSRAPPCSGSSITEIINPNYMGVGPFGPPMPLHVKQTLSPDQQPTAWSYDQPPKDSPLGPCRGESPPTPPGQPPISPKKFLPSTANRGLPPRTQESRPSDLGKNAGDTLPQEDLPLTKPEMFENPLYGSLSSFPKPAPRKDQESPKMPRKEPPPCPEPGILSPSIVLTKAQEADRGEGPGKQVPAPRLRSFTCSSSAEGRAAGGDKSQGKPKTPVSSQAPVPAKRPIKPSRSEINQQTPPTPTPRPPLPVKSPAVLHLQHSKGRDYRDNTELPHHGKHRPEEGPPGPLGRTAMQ
Assay: His-hSHIP1 activity (phosphatase assay, IP4 substrate, Biomol Green)
Type: biochemical
Design: key: +++: higher than reference or reference - 15%; ++: reference - 16% to reference - 30%; +: reference - 31% or lower; −: inhibitor
Conditions: ratio of initial velocities (IP4 25/IP4 250 μM final) compared with a reference SHIP1 activator; 37° C.
Procedure: Test compounds are dissolved in 95% ethanol to form stock solutions. Before screening, the stock solutions are diluted with Phosphatase Assay Buffer (20 mM Tris-HCL, 10 mM MgCl2 pH 7.5, 0.02% Tween 20) to form working assay solutions that contain 10% ethanol. The assay is carried out on 96-well microtiter plates using a modified procedure of that reported by Ong et al., Blood 110, 1942-1949, 2007 and Yang et al., Org Lett 7, 1073-1076, 2005, both of which references are incorporated herein by reference in their entirety.
A master mix is prepared that contains 50 μL of His-hSHIP1 enzyme (0.4-1.6 ng/μL final), 25 μL of the substrate, IP4 (25 or 250 μM final), and 50 μL of test compound in 3.3% ethanol ([…]). Control blanks are also prepared by replacing His-hSHIP1 enzyme, IP4, or test compounds with Phosphate Assay Buffer. […] Each reaction component is preincubated at 37° C. for 30 min before adding to a 96-well microtiter plate. The master mix is then incubated at 37° C. At time 0, 20, 25 and 30 min, 25 μL of the master mix is removed and transferred to a new 96-well microtiter plate, to which 100 μL of Biomol Green Reagent is added to stop the reaction. After incubating the mixture for 20 min at room temperature for color development, the absorbance is read with SpectraMax Plus 96-well plate reader at a wavelength of 650 nm. Phosphate released is plotted against time to calculate the initial velocities (i.e., slope of the graph) at each IP4 concentration. The initial velocities are baseline corrected and the ratio of initial velocities (IP425/IP4250) is calculated and used to rate the test compounds.
The compound numbers in Table 2 correspond to the compound numbers in Table 1 above. Scoring of the compound is expressed as follows: […]

Question: How did the “Scoring (Initial Velocity Ratio)” value turn out when `C[C@@H]1CC[C@@]2(OC1)O[C@H]1C[C@H]3[C@H](CO)[C@@H]([C@@]4(C)CC[C@H](O)C[C@@H]4CO)CC[C@]3(C)[C@H]1[C@@H]2C` [compound 29, (1S,3S,4R)-3-(hydroxymethyl)-4-((2R,3S,3aR,3bS,5′R,6S,7R,7aS,8aS)-7-(hydroxymethyl)-3,3b,5′-trimethyltetradecahydrospiro[indeno[2,1-b]furan-2,2′-pyran]-6-yl)-4-methylcyclohexanol] was run?
Answer: ++

Question: How did the “Scoring (Initial Velocity Ratio)” value turn out when `C[C@]1([C@H]2CC[C@@]3(C)[C@@H](CC[C@@]3(O)c3ccco3)[C@@H]2CN)CC[C@H](O)C[C@@H]1CO` [compound 12, (1S,3aS,4R,5S,7aS)-4-(aminomethyl)-1-(furan-2-yl)-5-((1R,2S,4S)-4-hydroxy-2-(hydroxymethyl)-1-methylcyclohexyl)-7a-methyloctahydro-1H-inden-1-ol] was run?
Answer: +++

Question: How did the “Scoring (Initial Velocity Ratio)” value turn out when `C[C@]1([C@H]2CC[C@@]3(C)[C@@H](CC[C@@]3(O)c3ccccc3)[C@@H]2CO)CC[C@H](O)C[C@@H]1CO` [compound 26, (1S,3aS,4R,5S,7aS)-5-((1R,2S,4S)-4-hydroxy-2-(hydroxymethyl)-1-methylcyclohexyl)-4-(hydroxymethyl)-7a-methyl-1-phenyloctahydro-1H-inden-1-ol] was run?
Answer: −

Question: Which “Scoring (Initial Velocity Ratio)” value does the source give for `C[C@]1([C@H]2CC[C@]3(C)C(c4cccs4)=CC[C@H]3[C@@H]2CN)CC[C@H](O)C[C@@H]1CO` [compound 16, (1S,3S,4R)-4-((3aS,6S,7R,7aS)-7-(aminomethyl)-3a-methyl-3-(thiophen-2-yl)-3a,4,5,6,7,7a-hexahydro-1H-inden-6-yl)-3-(hydroxymethyl)-4-methylcyclohexanol] here?
Answer: +

Question: For `C[C@]1([C@H]2CC[C@]3(C)C(c4ccco4)=CC[C@H]3[C@@H]2CO)CC[C@H](O)C[C@@H]1CO` [compound 30, (1S,3S,4R)-4-((3aS,6S,7R,7aS)-3-(furan-2-yl)-7-(hydroxymethyl)-3a-methyl-3a,4,5,6,7,7a-hexahydro-1H-inden-6-yl)-3-(hydroxymethyl)-4-methylcyclohexanol], which “Scoring (Initial Velocity Ratio)” value is on record?
Answer: +

Question: For `C[C@]1([C@H]2CC[C@@]3(C)[C@@H](CC[C@@]3(O)c3cccs3)[C@@H]2CO)CC[C@H](O)C[C@@H]1CO` [compound 34, (1S,3aS,4R,5S,7aS)-5-((1R,2S,4S)-4-hydroxy-2-(hydroxymethyl)-1-methylcyclohexyl)-4-(hydroxymethyl)-7a-methyl-1-(thiophen-2-yl)octahydro-1H-inden-1-ol], which “Scoring (Initial Velocity Ratio)” value is on record?
Answer: +

Question: Which “Scoring (Initial Velocity Ratio)” value does the source give for `C[C@]1([C@H]2CC[C@@]3(C)[C@@H](CC[C@@]3(O)c3ccccn3)[C@@H]2CO)CC[C@H](O)C[C@@H]1CO` [compound 36, (1S,3aS,4R,5S,7aS)-5-((1R,2S,4S)-4-hydroxy-2-(hydroxymethyl)-1-methylcyclohexyl)-4-(hydroxymethyl)-7a-methyl-1-(pyridin-2-yl)octahydro-1H-inden-1-ol] here?
Answer: ++

Question: Which “Scoring (Initial Velocity Ratio)” value does the source give for `CC1(C)CCC2=C1CC[C@H]([C@@]1(C)CC[C@H](O)C[C@@H]1CO)[C@H]2CNC(=O)c1cccnc1` [compound 1, N-(((4R,5S)-5-((1R,2S,4S)-4-hydroxy-2-(hydroxymethyl)-1-methylcyclohexyl)-1,1-dimethyl-2,3,4,5,6,7-hexahydro-1H-inden-4-yl)methyl)nicotinamide] here?
Answer: +

Question: Which “Scoring (Initial Velocity Ratio)” value does the source give for `CC(=O)O.CC1(C2CCC3(C)C(CCC3(O)c3ccccc3)C2CN)CCC(O)CC1CO` [compound 11, (1S,3aS,4R,5S,7aS)-4-(aminomethyl)-5-((1R,2S,4S)-4-hydroxy-2-(hydroxymethyl)-1-methylcyclohexyl)-7a-methyl-1-phenyloctahydro-1H-inden-1-ol acetate] here?
Answer: −
